From patent US20050065114A1, “Therapeutical treatment with oligo-beta- (1,3) -glucans, drugs used in said treatment” (priority 2003, published 2005)
Where “and” joins values, the source holds several entries; their conditions need not be identical. Equal values may be shown once.

How the values were obtained:
Type in all cases: in vivo, Balb/c mice
TNF-alpha = experiment: Cytokine level in peripheral blood: TNF-alpha in serum by OptEIA Mouse TNF-alpha ELISA; conditions: for TNF-alpha level (Table 6, same experiments as Table 5): 250 μg/mouse, unit not given in Table 6 (Table 5: pg/ml); for Relative activity on TNF-alpha level (in words): comparison between substances, Table 6, 24 and 48 h
Description: Balb/c mice were intraperitoneally injected with 50 μg of Laminaritetraose, Laminaripentaose, Laminarin or Lentinan (purchased from NIH, Bethesda, Md., USA) in PBS.
After various time intervals (30, 60 and 90 minutes, respectively), after the injection of Laminaritetraose, Laminaripentaose, Laminarin, Lentinan only, the mice were killed and blood was collected in Eppendorf tubes.
Subsequently, the serum of the collected blood was separated, collected and stored at −80° C. for no more than 1 week.
The level of TNF-alpha in the serum samples was evaluated using a commercial kit marketed as OptEIA Mouse TNF-alpha (Mono/Mono) Set by the Company Pharmingen, San Diego, Calif., USA); the manufacturer's instructions were followed.
In connection with the experiments carried out by Applicants, Balb/c mice were intraperitoneally injected with various doses (50, 100, and 250 μg) of Soluble laminarin and Lentinan (from NIH, Bethesda, Md., USA) in PBS.
Control mice were treated with PBS only. […]
Subsequently, the serum was prepared, collected and stored at −80° C. for no more than 1 week.
The level of TNF-alpha in serum samples was evaluated using a commercial kit marketed as OptEIA Mouse TNF-alpha (Mono/Mono) Set by the Company Pharmingen, San Diego, Calif., USA); the manufacturer's instructions were followed.
In that respect, The wells of 96-well plates were coated with 0.1 ml/well of capture antibody (provided in the above kit) diluted in coating buffer (also provided in the above kit); the expression “capture antibody” designates first antibody used for coating of wells; this antibody captures the tested cytokines from the solution; in this assay it was anti-mouse-TNF-alpha monoclonal antibody.
The plates were sealed and incubated overnight at 4° C.
Individual wells were emptied by aspiration and washed 3 times with over 300 el/well of wash buffer (also provided in the kit).
Reaction was blocked with 200 el/well of assay dilutant diluent (also provided in the kit) and by incubation for 60 minutes at room temperature.
Again, individual wells were emptied by aspiration and washed 3 times with over 300 el/well of the same wash buffer.
Standards (also provided in the kit) and samples of serum were diluted in assay diluent (also provided in the kit) and pipetted (100 μl/well) in appropriate wells; as far as the dissolution rate is concerned standards (part of the kit) were diluted according to the instructions into following concentrations: 1000 pg/ml, 500 pg/ml, 250, 125, 62.5, 31.3, and 15.6 pg/ml.
The plates were sealed and incubated for 60 minutes at room temperature. Individual wells were aspirated and washed 3 times with over 300 μl/well of the same wash buffer. A quantity of 100 μl/well of a working detector (antibody-avidin-HRP conjugate also provided in the kit) was added into each well.
The plates were sealed with plastic foils and incubated for 60 minutes at room temperature. Individual wells were emptied by aspiration and washed 3 times with over 300 μl/well of same wash buffer.
A quantity of 100 μl/well of substrate solution (also provided in the kit) was added to each well and the plates were incubated for 30 minutes in the dark at room temperature; “substrate solution” is formed by mixing a substrate reagent A containing hydrogen peroxide and Substrate reagent B containing 3,3′,5,5′-tetramethylbenzidine in organic solvent; when mixed together, the reagent reacts with peroxidase-labeled conjugates to develop a blue color.
A quantity of 50 μl/well of stop solution provided in the kit and adapted to stop the reaction was added to each well and the optical density was determined using a STL ELISA reader (marketed by Tecan U.S., Research Triangle Park, N.C.) at 450 nm with a correction at 570 nm.
The concentration of TNF-alpha, in pg/ml, in the blood of the mice treated as hereabove disclosed has been determined at the following moments: 30, 60 and 90 minutes after the injection of Laminaritetraose, Laminaripentaose, Lentinan and control. […]

peritoneal macrophages = experiment: Phagocytosis of HEMA particles by cells from peritoneal cavity after intraperitoneal injection; conditions: for % of phagocytosing macrophages: peritoneal cells 24 hrs after i.p. injection
Description: A group of Balb/c mice (Jackson laboratory, Bar Harbor, Me., USA) has been injected intraperitoneally with either PBS (control), Laminaritetraose or Laminaripentaose. 24 hrs later, mice were sacrificed, peritoneal cells were collected into Hanks medium (Sigma).
After counting the cells in hemocytometer, the peritoneal cells were diluted to lxlO7 cells in RPMI 1640 medium (Sigma) with 5% fetal calf serum (Hyclone, Logan, Utah, USA).
2×10^6 cells in 0.2 ml of RPMI 1640 medium supplemented with 5% fetal calf serum were mixed with the same volume of HEMA particles (5×10^8/ml).
The suspension was incubated for 60 minutes at 37° C. with occasional agitation. Incubation was terminated by centrifugation (150 g for 5 minutes) and the pellet was resuspended.
Macrophages with ingested particles were scored under the optical microscope in smears after Accustain (modified Wright stain, Sigma) staining.
Cells with six or more engulfed particles were considered to be positive.

[1] = system: peripheral blood cells (monocytes, lymphocytes, granulocytes); experiment: Differential count in blood; conditions: for % of granulocytes / % of lymphocytes / % of monocytes: peripheral blood 24 hrs after i.p. injection
Description: Using the same experimental groups as described above in Example 3, two extra microscopic slides from each experimental sample were prepared. After Accustain (modified Wright stain, Sigma) staining, the slides were evaluated using the optical microscope for presence of individual types of cells, i.e. monocytes, lymphocytes and granulocytes.

[2] = system: cells from peripheral blood (monocytes, granulocytes); experiment: Phagocytosis of HEMA particles by cells from peripheral blood after intraperitoneal injection; conditions: for % of phagocytosing granulocytes / % of phagocytosing monocytes: peripheral blood 24 hrs after i.p. injection
Description: A group of Balb/c mice (Jackson laboratory, Bar Harbor, ME, USA) has been injected intraperitoneally with either PBS (Control; Sigma, St. Louis, Mo., USA), Laminaritetraose or Laminaripentaose. 24 hrs later, mice were sacrified, peripheral blood from the orbital plexus was collected into heparine (5 IU/ml) (Sigma).
After counting, a test of phagocytosis of HEMA particles (synthetic microspheres prepared from 2-hydroxyethylmethacrylate copolymer) was performed as described in: Rembaum et al., 1976, Vetvicka et al. 1982, Bilej et al., 1989.
0.1 ml of heparinized fresh blood was added to 0.05 ml of diluted HEMA particles (5×10^8/ml) and incubated for 60 minutes at 37° C. with occasional gentle agitation.
After the end of incubation, the cell suspension was smeared over microscope slides. Smears were evaluated under the optical microscope after Accustain (modified Wright stain, Sigma) staining.
Cells with at least three engulfed particles were considered to be positive.

[3] = system: peritoneal cells (macrophages, lymphocytes, mast cells); experiment: Differential count in peritoneal cells; conditions: for % of lymphocytes / % of macrophages / % of mast cells: peritoneal cells 24 hrs after i.p. injection
Description: Using the same experimental groups as described above in Example 4, two extra microscopic slides from each experimental sample were prepared. After Accustain (modified Wright stain, Sigma) staining, the slides were evaluated using the optical microscope for presence of individual types of cells, i.e. macrophages, lymphocytes and mast cells.

[4] = individual values, cells with at least three engulfed HEMA particles positive
[5] = mean, at least three engulfed HEMA particles

## OC[C@H]1O[C@@H](O[C@@H]2[C@@H](O)[C@H](O[C@@H]3[C@@H](O)[C@H](O[C@@H]4[C@@H](O)[C@H](O[C@@H]5[C@@H](O)[C@H](O)O[C@H](CO)[C@H]5O)O[C@H](CO)[C@H]4O)O[C@H](CO)[C@H]3O)O[C@H](CO)[C@H]2O)[C@H](O)[C@@H](O)[C@@H]1O [Laminaripentaose, β-D-glucopyranosyl-(1→3)-β-D-glucopyranosyl-(1→3)-β-D-glucopyranosyl-(1→3)-β-D-glucopyranosyl-(1→3)-β-D-glucopyranose]
TNF-alpha; 50 μg/mouse i.p., 30 min
  Concentration of TNF alpha in blood of treated mice: 34.3 pg/mL
TNF-alpha; 50 μg/mouse i.p., 60 min
  Concentration of TNF alpha in blood of treated mice: 37.0 pg/mL
TNF-alpha; 50 μg/mouse i.p., 90 min
  Concentration of TNF alpha in blood of treated mice: 71.3 pg/mL
TNF-alpha; 100 μg/mouse i.p., 30 min
  Concentration of TNF alpha in blood of treated mice: 53.0 pg/mL
TNF-alpha; 100 μg/mouse i.p., 60 min
  Concentration of TNF alpha in blood of treated mice: 46.5 pg/mL
TNF-alpha; 100 μg/mouse i.p., 90 min
  Concentration of TNF alpha in blood of treated mice: 93.2 pg/mL
TNF-alpha; 250 μg/mouse i.p., 30 min
  Concentration of TNF alpha in blood of treated mice: 42.1 pg/mL
TNF-alpha; 250 μg/mouse i.p., 60 min
  Concentration of TNF alpha in blood of treated mice: 36.4 pg/mL
TNF-alpha; 250 μg/mouse i.p., 90 min
  Concentration of TNF alpha in blood of treated mice: 24.4 pg/mL
TNF-alpha; 24 hours
  TNF-alpha level (Table 6, same experiments as Table 5): 79.6 pg/mL
TNF-alpha; 48 hours
  TNF-alpha level (Table 6, same experiments as Table 5): 38.7 pg/mL
TNF-alpha
  Relative activity on TNF-alpha level (in words): more active than Laminaritetraose
TNF-alpha; listed as laminaripentaose
  Relative activity on TNF-alpha level (in words): more active than yest derived glucan (Lentinan)
TNF-alpha; low doses, indirect activation of macrophages and cytotoxic T lymphocytes
  Increase of TNF-alpha secretion compared with Lentinan (in words): significantly higher
Peritoneal macrophages; individual values, cells with six or more engulfed HEMA particles positive
  % of phagocytosing macrophages: 54.9% and 57.3% and 62.7%
Peritoneal macrophages; mean, six or more engulfed HEMA particles
  % of phagocytosing macrophages: 58.3%
Peritoneal macrophages; peritoneal cells, versus PBS control
  Effect on phagocytosis of peritoneal macrophages (in words): strongly stimulate phagocytosis
[1]; individual values
  % of granulocytes: 33.8% and 35.9% and 36.9%
  % of lymphocytes: 57.1% and 54.1% and 53.3%
  % of monocytes: 9.1% and 1.0% and 9.8%
[1]; mean
  % of granulocytes: 35.5%
  % of lymphocytes: 54.8%
  % of monocytes: 9.4%
[1]; versus PBS control
  Effect on number of granulocytes in the peripheral blood (in words): increase the number of granulocytes
[2]; [4]
  % of phagocytosing granulocytes: 40.8% and 42.5% and 46.4%
  % of phagocytosing monocytes: 41.6% and 43.1% and 49.6%
[2]; [5]
  % of phagocytosing granulocytes: 43.2%
  % of phagocytosing monocytes: 44.8%
[2]; peripheral blood, versus PBS control
  Effect on phagocytosis in monocytes and granulocytes (in words): strongly stimulate phagocytosis
[3]; individual values
  % of lymphocytes: 48.1% and 48.0% and 34.7%
  % of macrophages: 50.4% and 48.1% and 59.8%
  % of mast cells: 1.5% and 3.9% and 5.5%
[3]; mean
  % of lymphocytes: 43.4%
  % of macrophages: 52.8%
  % of mast cells: 3.6%
[3]; versus PBS control
  Effect on migration of macrophage into the peritoneal cavity (in words): stimulate the migration of macrophage

## Lentinan [reference compound]
TNF-alpha; 50 μg/mouse i.p., 30 min
  Concentration of TNF alpha in blood of treated mice: 20 pg/mL
TNF-alpha; 50 μg/mouse i.p., 60 min
  Concentration of TNF alpha in blood of treated mice: 15.7 pg/mL
TNF-alpha; 50 μg/mouse i.p., 90 min
  Concentration of TNF alpha in blood of treated mice: 32.0 pg/mL
TNF-alpha; 100 μg/mouse i.p., 30 min
  Concentration of TNF alpha in blood of treated mice: 28 pg/mL
TNF-alpha; 100 μg/mouse i.p., 60 min
  Concentration of TNF alpha in blood of treated mice: 30.7 pg/mL
TNF-alpha; 100 μg/mouse i.p., 90 min
  Concentration of TNF alpha in blood of treated mice: 20.3 pg/mL
TNF-alpha; 250 μg/mouse i.p., 30 min
  Concentration of TNF alpha in blood of treated mice: 86.3 pg/mL
TNF-alpha; 250 μg/mouse i.p., 60 min
  Concentration of TNF alpha in blood of treated mice: 68.7 pg/mL
TNF-alpha; 250 μg/mouse i.p., 90 min
  Concentration of TNF alpha in blood of treated mice: 48.6 pg/mL
